According to patent publication US7150967B2, “Fluorescent tags for amino acid and nucleic acid analysis” (University of Medicine & Dentistry of New Jersey, priority 2002, dated 2006):

Columns and labels:
[1] = biological target: bovine serum albumin (BSA) (Bos taurus, UniProt P02769); assay: Reaction with the thiol containing species bovine serum albumin, monitored by ultraviolet absorbance spectra; settings: BSA 0.1 μg, 2.5 μmol compound, 30 minutes at 37° C.
Protocol: BSA (0.1 μg) was reacted with 2.5 μmol iodomercurio-H2DMP (IM-H2DMP) for 30 minutes at 37° C.

BSA = BSA (Bos taurus, UniProt P02769); assay: Detection of a protein on a 10% PAGE gel via formation of a fluorescent reaction product; parameters: species or system bovine; settings: BSA 150 μg, 1.5 nmol compound, 30 minutes at 37° C.
Protocol: In these experiments, BSA (150 μg) was reacted with the mercurimethyl-dihydropsoralen 3-cyanomercurio-H2DMP (1.5 nmol) for 30 minutes at 37° C. The products were then run on a 10% PAGE gel to separate any reaction product from unreacted psoralen. The fluorescent BSA-mercurimethyl-dihydropsoralen reaction product was […].

bovine serum albumin (BSA), sequence (P02769 25-607): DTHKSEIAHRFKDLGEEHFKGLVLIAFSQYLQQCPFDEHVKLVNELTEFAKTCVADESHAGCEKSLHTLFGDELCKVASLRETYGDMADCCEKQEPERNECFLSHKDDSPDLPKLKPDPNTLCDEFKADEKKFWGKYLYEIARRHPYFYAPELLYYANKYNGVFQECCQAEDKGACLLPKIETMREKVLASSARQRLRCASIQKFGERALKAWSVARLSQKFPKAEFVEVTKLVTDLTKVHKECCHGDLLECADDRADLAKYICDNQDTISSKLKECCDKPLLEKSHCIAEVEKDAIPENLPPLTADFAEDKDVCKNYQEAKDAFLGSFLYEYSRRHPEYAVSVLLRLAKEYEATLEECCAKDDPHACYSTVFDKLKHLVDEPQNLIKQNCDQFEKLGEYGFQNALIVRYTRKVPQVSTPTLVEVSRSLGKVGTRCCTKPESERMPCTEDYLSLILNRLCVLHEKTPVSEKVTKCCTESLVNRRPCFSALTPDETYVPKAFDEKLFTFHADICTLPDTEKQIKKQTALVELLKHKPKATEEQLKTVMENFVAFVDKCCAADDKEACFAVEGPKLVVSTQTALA

## Cc1cc(=O)oc2c(C)c3c(cc12)CC([CH2][Hg][I])O3 (centres unmarked) [Compound P1, iodomercurio-H2DMP]
[1]
  change in ultraviolet absorbance spectra (formation of new reaction product): change in the ultraviolet absorbance spectra indicative of formation of a new reaction product was observed

## CC(=O)[O][Hg][CH2]C1Cc2cc3c(C)c(C#N)c(=O)oc3c(C)c2O1 (centres unmarked) [Compound P6, 3-cyano-acetylmercurio-H2DMP]
BSA
  ability to detect a protein on a gel via fluorescent reaction product: demonstrated
